Read-outs that look alike come from different tables or passages of the source. Where a SMILES comes first, the peptide text is derived from it. [ ]: non-standard residue; d: D form. Gly(Nα-oleyl) = CCCCCCCC/C=C\CCCCCCCCNCC(=O)O; Gly(N-dodecyl) = CCCCCCCCCCCCNCC(=O)O; N(CH(CH2OH)2)Gly = O=C(O)CNC(CO)CO; N(octyl)Gly = CCCCCCCCNCC(=O)O; NDecylGly = CCCCCCCCCCNCC(=O)O; NHexGly = CCCCCCNCC(=O)O
Legend:
[1] = Particle size and polydispersity (PDI) of delivery vehicles by dynamic light scattering; format: physicochemical
Procedure: The resulting delivery vehicle complexes were evaluated by dynamic light scattering (DLS) to determine the volume average particle size/diameter (nm) and the size polydispersity index (PDI) within the delivery vehicle complex.
Particle size. Particle sizes and size distributions were measured using a Wyatt DynaPro® Plate Reader III. In general, formulated samples were diluted to 2 ng/μL in 100 µL PBS. Data is reported as the hydrodynamic diameter (in nm) of the cumulant fit of the correlation function, and the polydispersity of that measurement.
In one particular instance, the size and polydispersity (PDI) of delivery vehicles was measured by dynamic light scattering in PBS using a DynaPro® plate reader III. The zeta potential of delivery vehicles was determined using Nano-ZS™ particle analyzer. Zeta sample was diluted to 30 uM total lipid in a weakly buffered solution of 10 mM HEPES, 10 mM MES, 10 mM ammonium acetate pH 7. Measurements were collected in duplicate for over 30 run with the voltage manually set to […]

[2] = Percent encapsulated mRNA, RiboGreen assay; format: physicochemical
Procedure: Percent encapsulation. The percentage of mRNA encapsulated within the delivery vehicle complexes containing Fluc mRNA was determined using a modified RiboGreen® assay. In general, formulated mRNA samples were diluted to 500 ng/ml in Tris-EDTA buffer with or without Triton-X™. RiboGreen® (Invitrogen) was added at a 200-fold dilution, and the plate was incubated for 5 minutes. Fluorescence was measured at Ex. […]/Em. 520 nm and encapsulated mRNA was calculated by taking the ratio of fluorescence for non-lysed particles versus lysed particles.
The mRNA concentration and the percentage of encapsulated mRNA were determined using a fluorescence-based Quant-iT™ RiboGreen® RNA Reagent Kit using a literature procedure. To determine the mRNA concentration, delivery vehicles were incubated with 2% Triton™ X-100 for 10 min to release entrapped mRNA, followed by addition of RiboGreen® RNA reagent. The fluorescence intensity of mRNA-RiboGreen® reagent complex (excitation at 485 nm and emission at 530 nm) was detected using a microplate reader. The ratio of fluorescence without and with Triton™ X-100 were used to calculate the percentage of encapsulated mRNA.

[3] = RBC hemolysis as metric for fusogenicity; format: cell-based; settings: sheep red blood cells (RBCs), 5% v/v
Procedure: RBC hemolysis was used as a metric for fusogenicity of LNPs at low pH. […] Particles were diluted to […] total lipid in well with 5% RBC solution and incubated at 37° C. for 45 min. Supernatant was collected and absorbance read on a microplate reader at 425 nm. Fusion was normalized to a fully lysed sample with 2% Triton™ and a buffer-only control. % hemolysis=100*[(ABS T-background)−(ABS sample-background)/(ABS T-background)].

[4] = Table 5, delivery vehicle comprising the peptoid, Formulation D22, fLuc mRNA
[5] = Table 6, comparative peptoid delivery vehicle
[6] = Table 6, comparative peptoid delivery vehicle, pH 5, read-out: Hemolysis at pH 5
[7] = Table 6, comparative peptoid delivery vehicle, pH 7, read-out: Hemolysis at pH 7

| PDI [1, 4] | Particle Size (nm) [1, 4] | % Encapsulation [2, 4] | PDI [1, 5] | Particle Size (nm) [1, 5] | % Encapsulation [2, 5] | SMILES | hemolysis at 45 min, 150 mM total lipid ([3]; Table 5, delivery vehicle, 37° C. 45 min, pH 5, read-out: Hemolysis at pH 5) | hemolysis at 45 min, 150 mM total lipid ([3]; Table 5, delivery vehicle, 37° C. 45 min, pH 7, read-out: Hemolysis at pH 7) | hemolysis at 45 min, 150 mM total lipid [3, 6] | hemolysis at 45 min, 150 mM total lipid [3, 7] |
| --- | --- | --- | --- | --- | --- | --- | --- | --- | --- | --- |
|  |  |  | 0.206 | 61.3 nm | 86.6% | CCCCCCCCCCCCN(CC(N)=O)C(=O)CN(CCCCCCCCCCCC)C(=O)CN(CCCCCCCCCCCC)C(=O)CN(CCCCCCCCCCCC)C(=O)CNCCN [Compound C1, reference compound] |  |  | -15.1% | 39.2% |
|  |  |  | 0.179 | 67.0 nm | 92.2% | CCCCCCCCCCCCN(CC(N)=O)C(=O)CN(CCCCCCCCCCCC)C(=O)CN(CCCCCCCCCCCC)C(=O)CN(CCCCCCCCCCCC)C(=O)CNCCCO [Compound C2, reference compound] |  |  | 10.6% | 37.2% |
|  |  |  | 0.196 | 65.3 nm | 87.5% | CCCCCCCCCCCCN(CC(N)=O)C(=O)CN(CCCCCCCCCCCC)C(=O)CN(CCCCCCCCCCCC)C(=O)CN(CCCCCCCCCCCC)C(=O)CNCCO [Compound C3, reference compound] |  |  | 24.4% | 51.1% |
|  |  |  | 0.186 | 67.7 nm | 90.5% | CCCCCCCCCCCCN(CC(N)=O)C(=O)CN(CCCCCCCCCCCC)C(=O)CN(CCCCCCCCCCCC)C(=O)CN(CCCCCCCCCCCC)C(=O)CN(CCO)CCO [Compound C4, reference compound] |  |  | 4.9% | 12% |
|  |  |  | 0.135 | 57.3 nm | 97.5% | CCCCCCCCCCCCN(CC(N)=O)C(=O)CN(CCCCCCCCCCCC)C(=O)CN(CCCCCCCCCCCC)C(=O)CN(CCCCCCCCCCCC)C(=O)CNCCCN [Compound C5, reference compound] |  |  | -15.6% | 39.8% |
|  |  |  | 0.223 | 67.1 nm | 92.6% | CCCCCCCCCCCCN(CC(N)=O)C(=O)CN(CCCCCCCCCCCC)C(=O)CN(CCCCCCCCCCCC)C(=O)CN(CCCCCCCCCCCC)C(=O)CNCCOC [Compound C6, reference compound] |  |  | 4.9% | 22.7% |
|  |  |  | 0.219 | 71.3 nm | 93.1% | CCCCCCCCCCCCN(CC(N)=O)C(=O)CN(CCCCCCCCCCCC)C(=O)CN(CCCCCCCCCCCC)C(=O)CN(CCCCCCCCCCCC)C(=O)CNCCCOC [Compound C7, reference compound] |  |  | 31.6% | 65.5% |
|  |  |  | 0.192 | 60.2 nm | 93.5% | CCCCCCCCCCCCN(CC(N)=O)C(=O)CN(CCCCCCCCCCCC)C(=O)CN(CCCCCCCCCCCC)C(=O)CN(CCCCCCCCCCCC)C(=O)CNCCCn1ccnc1 [Compound C8, reference compound] |  |  | 2.3% | 8.1% |
|  |  |  | 0.201 | 63.0 nm | 98.8% | CCCCCCCCCCCCN(CC(N)=O)C(=O)CN(CCCCCCCCCCCC)C(=O)CN(CCCCCCCCCCCC)C(=O)CN(CCCCCCCCCCCC)C(=O)CNCCCn1ccnc1C [Compound C9, reference compound] |  |  | 0.7% | 2.4% |
|  |  |  | 0.520 | 84.6 nm | 86.6% | CCCCCCCCCCCCN(CC(N)=O)C(=O)CN(CCCCCCCCCCCC)C(=O)CN(CCCCCCCCCCCC)C(=O)CN(CCCCCCCCCCCC)C(=O)CNCCCN1CCOCC1 [Compound C10, reference compound] |  |  | 0.6% | 1% |
|  |  |  | 0.179 | 70.2 nm | 92.4% | CCCCCCCCCCCCN(CC(N)=O)C(=O)CN(CCCCCCCCCCCC)C(=O)CN(CCCCCCCCCCCC)C(=O)CN(CCCCCCCCCCCC)C(=O)CNCCCN1CCCCC1 [Compound C11, reference compound] |  |  | 9.6% | 10.2% |
|  |  |  | 0.175 | 62.4 nm | 95.9% | CCCCCCCCCCCCN(CC(N)=O)C(=O)CN(CCCCCCCCCCCC)C(=O)CN(CCCCCCCCCCCC)C(=O)CN(CCCCCCCCCCCC)C(=O)CN(CC)CCO [Compound C12, reference compound] |  |  | -2.4% | 3.9% |
|  |  |  | 0.180 | 57.6 nm | 95.4% | CCCCCCCCCCCCN(CC(N)=O)C(=O)CN(CCCCCCCCCCCC)C(=O)CN(CCCCCCCCCCCC)C(=O)CN(CCCCCCCCCCCC)C(=O)CNCCN(C)C [Compound C13, reference compound] |  |  | -12.3% | 8.2% |

Further lines, the compound ahead of its results:

| SMILES | PDI [1, 4] | Particle Size (nm) [1, 4] | % Encapsulation [2, 4] | PDI [1, 5] | Particle Size (nm) [1, 5] | % Encapsulation [2, 5] | hemolysis at 45 min, 150 mM total lipid ([3]; Table 5, delivery vehicle, 37° C. 45 min, pH 5, read-out: Hemolysis at pH 5) | hemolysis at 45 min, 150 mM total lipid ([3]; Table 5, delivery vehicle, 37° C. 45 min, pH 7, read-out: Hemolysis at pH 7) | hemolysis at 45 min, 150 mM total lipid [3, 6] | hemolysis at 45 min, 150 mM total lipid [3, 7] |
| --- | --- | --- | --- | --- | --- | --- | --- | --- | --- | --- |
| CCCCCCCC/C=C\CCCCCCCCN(CC(=O)N(CCCCCCCCCCCC)CC(N)=O)C(=O)CN(CCCCCCCCCCCC)C(=O)CNC(CO)CO [Compound 4] (H-[N(CH(CH2OH)2)Gly][Gly(N-dodecyl)][Gly(Nα-oleyl)][Gly(N-dodecyl)]-NH2) | Multimodal | 631.3 nm | 12.3% |  |  |  |  |  |  |  |
| CCCCCCCCN(CC(N)=O)C(=O)CN(CCCCCCCC)C(=O)CN(CCCCCCCC)C(=O)CN(CC(CC)CCCC)C(=O)CN(CCCCCCCC)C(=O)CN(CCCCCCCC)C(=O)CN(CCCCCCCC)C(=O)CN(CC(CC)CCCC)C(=O)CNC(CO)CO (stereo not shown) [Compound 11] | 0.111 | 106.6 nm | 66.1% |  |  |  |  |  |  |  |
| CCCCCCCCCCCCN(CC(=O)N(CC(=O)N(CCCCCCCCCCCC)CC(=O)N(CC(N)=O)CC(CC)CCCC)CC(CC)CCCC)C(=O)CNC(CO)CO (stereo not shown) [Compound 23] | Multimodal | 1269.5 nm | 2.3% |  |  |  |  |  |  |  |
| CCCCCCCCN(CC(=O)N(CCCCCCCC)CC(=O)N(CCCCCC)CC(=O)N(CCCCCCCC)CC(=O)N(CCCCCCCC)CC(=O)N(CCCCCC)CC(N)=O)C(=O)CNC(CO)CO [Compound 25] (H-[N(CH(CH2OH)2)Gly][N(octyl)Gly][N(octyl)Gly][NHexGly][N(octyl)Gly][N(octyl)Gly][NHexGly]-NH2) | Multimodal | 2220.3 nm | 24.3% |  |  |  | 94.6% | 94.7% |  |  |
| CCCCCCCCCCN(CC(N)=O)C(=O)CN(CCCCCCCC)C(=O)CN(CCCCCCCC)C(=O)CN(CCCCCCCCCC)C(=O)CN(CCCCCCCC)C(=O)CN(CCCCCCCC)C(=O)CNC(CO)CO [Compound 26] (H-[N(CH(CH2OH)2)Gly][N(octyl)Gly][N(octyl)Gly][NDecylGly][N(octyl)Gly][N(octyl)Gly][NDecylGly]-NH2) | Multimodal | 421.9 nm | 66.1% |  |  |  |  |  |  |  |
| CCCCCCCCCCN(CC(=O)N(CCCCCC)CC(N)=O)C(=O)CN(CCCCCCCC)C(=O)CN(CCCCCC)C(=O)CN(CCCCCCCCCC)C(=O)CN(CCCCCCCC)C(=O)CNC(CO)CO [Compound 32] (H-[N(CH(CH2OH)2)Gly][N(octyl)Gly][NDecylGly][NHexGly][N(octyl)Gly][NDecylGly][NHexGly]-NH2) | Multimodal | 692.4 nm | 23.3% |  |  |  |  |  |  |  |

From patent US20260083769A1, “2-Aminopropane-1,3-Diol-Capped Cationic Peptoids for Nucleic Acid Delivery” (NUTCRACKER THERAPEUTICS, INC., priority 2022, published 2026)
